Values quoted from earlier work, collected in patent publication US11959122B2.

Tested on: microbial flora in the target watershed
Settings: determined by EUCAST database; unit assumed; cited from earlier work
In the case of `CC1(C)S[C@@H]2[C@H](NC(=O)[C@H](N)c3ccc(O)cc3)C(=O)N2[C@H]1C(=O)O` [Amoxicillin], the Observed MIC is given as 4 µg/mL.
For `CC1(C)S[C@@H]2[C@H](NC(=O)[C@H](N)c3ccccc3)C(=O)N2[C@H]1C(=O)O` [Ampicillin], the Observed MIC is given as 4 µg/mL.
In the case of `CC[C@H]1OC(=O)[C@H](C)[C@@H](O[C@H]2C[C@@](C)(OC)[C@@H](O)[C@H](C)O2)[C@H](C)[C@@H](O[C@@H]2O[C@H](C)C[C@H](N(C)C)[C@H]2O)[C@](C)(O)C[C@@H](C)CN(C)[C@H](C)[C@@H](O)[C@]1(C)O` [Azithromycin], the Observed MIC is listed as 16 µg/mL.
In the case of `C[C@H]1[C@H](NC(=O)/C(=N\OC(C)(C)C(=O)O)c2csc(N)n2)C(=O)N1S(=O)(=O)O` [Aztreonam], the Observed MIC is listed as 32 µg/mL.
In the case of `N[C@@H](C(=O)N[C@@H]1C(=O)N2C(C(=O)O)=C(Cl)CS[C@H]12)c1ccccc1` [Cefaclor], the Observed MIC is given as 32 µg/mL.
For `Cc1nnc(SCC2=C(C(=O)O)N3C(=O)[C@@H](NC(=O)Cn4cnnn4)[C@H]3SC2)s1` [Cefazolin], the Observed MIC is listed as 32 µg/mL.
In the case of `CO/N=C(\C(=O)N[C@@H]1C(=O)N2C(C(=O)[O-])=C(C[N+]3(C)CCCC3)CS[C@H]12)c1csc(N)n1` [Cefepime], the Observed MIC is given as 8 µg/mL.
In the case of `CO/N=C(\C(=O)N[C@@H]1C(=O)N2C(C(=O)O)=C(COC(C)=O)CS[C@H]12)c1csc(N)n1` [Cefotaxime], the Observed MIC is listed as 2 µg/mL.
For `CO/N=C(\C(=O)N[C@@H]1C(=O)N2C(C(=O)[O-])=C(C[n+]3cccc4c3CCC4)CS[C@H]12)c1csc(N)n1` [Cefpirome], the Observed MIC is given as 4 µg/mL.
In the case of `CC(C)(O/N=C(\C(=O)N[C@@H]1C(=O)N2C(C(=O)[O-])=C(C[n+]3ccccc3)CS[C@H]12)c1csc(N)n1)C(=O)O` [Ceftazidime], the Observed MIC is listed as 16 µg/mL.
In the case of `Nc1nc(/C(=C/CC(=O)O)C(=O)N[C@@H]2C(=O)N3C(C(=O)O)=CCS[C@H]23)cs1` [Ceftibuten], the Observed MIC is listed as 8 µg/mL.
For `CO/N=C(\C(=O)N[C@@H]1C(=O)N2C(C(=O)O)=C(CSC(=O)c3ccco3)CS[C@H]12)c1csc(N)n1` [Ceftiofur], the Observed MIC is given as 8 µg/mL.
In the case of `CO/N=C(\C(=O)N[C@@H]1C(=O)N2C(C(=O)O)=C(CSc3nc(=O)c(=O)[nH]n3C)CS[C@H]12)c1csc(N)n1` [Ceftriaxone], the Observed MIC is given as 2 µg/mL.
In the case of `CO/N=C(\C(=O)N[C@@H]1C(=O)N2C(C(=O)O)=C(COC(N)=O)CS[C@H]12)c1ccco1` [Cefuroxime], the Observed MIC is listed as 8 µg/mL.
In the case of `O=C(O)c1cn(C2CC2)c2cc(N3CCNCC3)c(F)cc2c1=O` [Ciprofloxacin], the Observed MIC is listed as 2 µg/mL.
In the case of `NC1CCN(c2c(F)cc3c(=O)c(C(=O)O)cn(C4CC4)c3c2Cl)C1` (stereo not drawn) [Clinafloxacin], the Observed MIC is given as 32 µg/mL.
In the case of `Cc1onc(-c2ccccc2Cl)c1C(=O)N[C@@H]1C(=O)N2[C@@H]1SC(C)(C)[C@@H]2C(=O)O` [Cloxacillin], the Observed MIC is listed as 64 µg/mL.
For `CCCCCCCCCC(=O)N[C@@H](Cc1c[nH]c2ccccc12)C(=O)N[C@H](CC(N)=O)C(=O)N[C@@H](CC(=O)O)C(=O)N[C@@H]1C(=O)NCC(=O)N[C@@H](CCCN)C(=O)N[C@@H](CC(=O)O)C(=O)N[C@H](C)C(=O)N[C@@H](CC(=O)O)C(=O)NCC(=O)N[C@H](CO)C(=O)N[C@@H]([C@H](C)CC(=O)O)C(=O)N[C@@H](CC(=O)c2ccccc2N)C(=O)O[C@@H]1C` [Daptomycin], the Observed MIC is given as 32 µg/mL.
In the case of `CN1CCN(c2cc3c(cc2F)c(=O)c(C(=O)O)cn3-c2ccc(F)cc2)CC1` [Difloxacin], the Observed MIC is given as 2 µg/mL.
In the case of `CCN1CCN(c2cc3c(cc2F)c(=O)c(C(=O)O)cn3C2CC2)CC1` [Enrofloxacin], the Observed MIC is listed as 8 µg/mL.
In the case of `C[C@@H](O)[C@H]1C(=O)N2C(C(=O)O)=C(S[C@@H]3CN[C@H](C(=O)Nc4cccc(C(=O)O)c4)C3)[C@H](C)[C@H]12` [Ertapenem], the Observed MIC is given as 2 µg/mL.
In the case of `CC[C@H]1OC(=O)[C@H](C)[C@@H](O[C@H]2C[C@@](C)(OC)[C@@H](O)[C@H](C)O2)[C@H](C)[C@@H](O[C@@H]2O[C@H](C)C[C@H](N(C)C)[C@H]2O)[C@](C)(O)C[C@@H](C)C(=O)[C@H](C)[C@@H](O)[C@]1(C)O` [Erythromycin], the Observed MIC is listed as 16 µg/mL.
In the case of `C[C@@H](O)[C@H]1C(=O)N2C(C(=O)O)=C([C@H]3CCCO3)S[C@H]12` [Faropenem], the Observed MIC is given as 8 µg/mL.
For `CCc1c(Cl)c(O)c(Cl)c(O)c1C(=O)O[C@H]1[C@H](O)[C@H](OC)[C@H](OC/C2=C\C=C\C[C@H](O)/C(C)=C/[C@H](CC)[C@@H](O[C@@H]3OC(C)(C)[C@@H](OC(=O)C(C)C)[C@H](O)[C@@H]3O)/C(C)=C/C(C)=C/C[C@@H]([C@@H](C)O)OC2=O)O[C@@H]1C` [Fidaxomicin], the Observed MIC is listed as 8 µg/mL.
In the case of `OC(Cn1cncn1)(Cn1cncn1)c1ccc(F)cc1F` [Fluconazol], the Observed MIC is listed as 64 µg/mL.
In the case of `CC1CCc2cc(F)cc3c(=O)c(C(=O)O)cn1c23` (stereo not drawn) [Flumequine], the Observed MIC is given as 64 µg/mL.
In the case of `COc1c(N2CCNC(C)C2)c(F)cc2c(=O)c(C(=O)O)cn(C3CC3)c12` (stereo not drawn) [Gatifloxacin], the Observed MIC is listed as 4 µg/mL.
For `NNC(=O)c1ccncc1` [Isoniazide], the Observed MIC is listed as 64 µg/mL.
For `CC(=O)N1CCN(c2ccc(OCC3COC(Cn4ccnc4)(c4ccc(Cl)cc4Cl)O3)cc2)CC1` (stereo not drawn) [Ketoconazole], the Observed MIC is given as 4 µg/mL.
For `C[C@@H](O)[C@H]1C(=O)N2C(C(=O)O)=C(S[C@@H]3CN[C@H](C(=O)N(C)C)C3)[C@H](C)[C@H]12` [MeropeneM], the Observed MIC is given as 2 µg/mL.
In the case of `Cc1ncc([N+](=O)[O-])n1CCO` [Metronidazole], the Observed MIC is given as 16 µg/mL.
For `C/C(=C\C(=O)OCCCCCCCCC(=O)O)C[C@@H]1OC[C@H](C[C@@H]2O[C@H]2[C@@H](C)[C@H](C)O)[C@@H](O)[C@H]1O` [Mupirocin], the Observed MIC is listed as 32 µg/mL.
For `CCN[C@@H]1C[C@H](N)[C@@H](O[C@H]2OC(CN)=CC[C@H]2N)[C@H](O)[C@H]1O[C@H]1OC[C@](C)(O)[C@H](NC)[C@H]1O` [Netilmicin], the Observed MIC is given as 16 µg/mL.
In the case of `CCn1cc(C(=O)O)c(=O)c2cc(F)c(N3CCNCC3)cc21` [Norfloxacin], the Observed MIC is listed as 16 µg/mL.
For `Cc1onc(-c2ccccc2)c1C(=O)N[C@@H]1C(=O)N2[C@@H]1SC(C)(C)[C@@H]2C(=O)O` [Oxacillin], the Observed MIC is given as 32 µg/mL.
For `CC1(C)S[C@@H]2[C@H](NC(=O)COc3ccccc3)C(=O)N2[C@H]1C(=O)O` [Phenoxymethylpenicillin], the Observed MIC is listed as 4 µg/mL.
For `CCN1CCN(C(=O)N[C@@H](C(=O)N[C@@H]2C(=O)N3[C@@H]2SC(C)(C)[C@@H]3C(=O)O)c2ccccc2)C(=O)C1=O` [Piperacillin], the Observed MIC is listed as 4 µg/mL.
For `C=C[C@]1(C)C[C@@H](OC(=O)CS[C@@H]2C[C@H]3CC[C@@H](C2)N3C)[C@]2(C)[C@H](C)CC[C@]3(CCC(=O)[C@H]32)[C@@H](C)[C@@H]1O` [Retapamulin], the Observed MIC is given as 64 µg/mL.
For `CC[C@H]1OC(=O)[C@H](C)[C@@H](O[C@H]2C[C@@](C)(OC)[C@@H](O)[C@H](C)O2)[C@H](C)[C@@H](O[C@@H]2O[C@H](C)C[C@H](N(C)C)[C@H]2O)[C@](C)(O)C[C@@H](C)/C(=N\OCOCCOC)[C@H](C)[C@@H](O)[C@]1(C)O` [Roxithromycin], the Observed MIC is listed as 2 µg/mL.
For `Cc1ncc([N+](=O)[O-])n1CC(C)O` (stereo not drawn) [Secnidazole], the Observed MIC is given as 32 µg/mL.
In the case of `CN[C@@H]1[C@H](O)[C@H](NC)[C@H]2O[C@@]3(O)C(=O)C[C@@H](C)O[C@H]3O[C@@H]2[C@H]1O` [Spectinomycin], the Observed MIC is listed as 2 µg/mL.
For `CC[C@H]1OC(=O)[C@H](C)C(=O)[C@H](C)[C@@H](O[C@@H]2O[C@H](C)C[C@H](N(C)C)[C@H]2O)[C@](C)(OC)C[C@@H](C)C(=O)[C@H](C)[C@H]2N(CCCCn3cnc(-c4cccnc4)c3)C(=O)O[C@]12C` [Telithromycin], the Observed MIC is listed as 16 µg/mL.
